According to paper PMC7211203 (European Journal of Drug Metabolism and Pharmacokinetics, 2020):
“Also recorded” adds a separate entry of the source. Like-named read-outs stand apart in the source and are kept apart here.

What was measured:
CYP3A = conditions: open-label, fixed-sequence study in 16 cancer patients; cited from earlier work
[1] = format: in vivo, human; conditions: for Vd/F: Vz/F
CYP3A4 [2] = biological target: T1, CYP3A4 (Homo sapiens, UniProt P08684); format: in vivo
CYP3A4 [3] = biological target: T1, CYP3A4; conditions: 18 patients with solid tumors; cited from earlier work
[4] = D −3, patients of comparison D14 vs D −3
[5] = human, plasma, oral, 4 mg, Plasma concentration, mean (standard deviation), D −3 midazolam only
[6] = human, plasma, oral, Plasma concentration, mean (standard deviation), D1 1 dose of lenvatinib and midazolam
[7] = human, plasma, oral, Plasma concentration, mean (standard deviation), D14 multiple doses of lenvatinib and 1 dose of midazolam

T1 sequence (P08684 whole entry): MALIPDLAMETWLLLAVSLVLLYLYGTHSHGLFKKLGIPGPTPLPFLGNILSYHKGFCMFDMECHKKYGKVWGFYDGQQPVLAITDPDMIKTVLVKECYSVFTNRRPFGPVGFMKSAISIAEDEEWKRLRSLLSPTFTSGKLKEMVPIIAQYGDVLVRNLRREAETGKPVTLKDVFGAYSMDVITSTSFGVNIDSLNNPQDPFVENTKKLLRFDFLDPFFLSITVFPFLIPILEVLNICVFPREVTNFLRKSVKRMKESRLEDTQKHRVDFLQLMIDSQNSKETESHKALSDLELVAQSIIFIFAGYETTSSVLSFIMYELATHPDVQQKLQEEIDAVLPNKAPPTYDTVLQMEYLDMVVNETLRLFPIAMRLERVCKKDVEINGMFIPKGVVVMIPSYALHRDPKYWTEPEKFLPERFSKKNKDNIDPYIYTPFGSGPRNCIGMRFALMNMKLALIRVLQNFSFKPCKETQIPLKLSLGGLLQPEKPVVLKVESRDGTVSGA

Structure (SMILES): CO[C@H]1C[C@@H]2CC[C@@H](C)[C@@](O)(O2)C(=O)C(=O)N2CCCC[C@H]2C(=O)O[C@H]([C@H](C)C[C@@H]2CC[C@@H](OP(C)(C)=O)[C@H](OC)C2)CC(=O)[C@H](C)/C=C(\C)[C@@H](O)[C@@H](OC)C(=O)[C@H](C)C[C@H](C)/C=C/C=C/C=C/1C [Ridaforolimus, ridaforolimus]
- Impact on CYP3A (midazolam probe) (CYP3A): minimal inhibitory impact on CYP3A

Structure (SMILES): Cc1ncc2n1-c1ccc(Cl)cc1C(c1ccccc1F)=NC2 [midazolam]
- Cmax geometric mean, lenvatinib + midazolam (test) ([1]; D14, comparison D14 vs D −3): 24.76 ng/mL
- Cmax geometric mean, midazolam (reference) ([1]; D −3, patients of comparison D1 vs D −3): 24.73 ng/mL
- AUC0–24 geometric mean, midazolam (reference) [1, 4]: 88.30 ng·h/mL
- Cmax geometric mean, midazolam (reference) [1, 4]: 24.10 ng/mL
- Cmax ([1]; Day −3, midazolam alone, mean (SD)): 26.5 (10.7) ng/mL
- concentration at 1 h [1, 5]: 19 ng/mL
- concentration at 2 h [1, 5]: 13.1 ng/mL
- concentration at 3 h [1, 5]: 8.78 ng/mL
- concentration at 4 h [1, 5]: 6.12 ng/mL
- concentration at 6 h [1, 5]: 4.19 ng/mL
- concentration at 8 h [1, 5]: 3.24 ng/mL
- concentration at 10 h [1, 5]: 2.51 ng/mL
- concentration at 24 h [1, 5]: 0.53 ng/mL
- Vd/F ([1]; human, plasma, oral, 4 mg, Day −3, midazolam alone, mean (SD)): 382 L
- half-life ([1]; human, plasma, oral, 4 mg, t1/2, Day −3, midazolam alone, mean (SD)): 5.87 h
- AUC(0-t) ([1]; human, plasma, oral, AUC0–24, Day 14, midazolam with lenvatinib at steady state, mean (SD), n = 19): 117 ng·h/mL
- Cmax ([1]; human, plasma, oral, Cmax, Day 1, with single dose of lenvatinib, mean (SD)): 24.8 ng/mL
- Cmax ([1]; human, plasma, oral, Cmax, Day 14, with lenvatinib at steady state, mean (SD)): 28.3 ng/mL
- concentration at 0.5 h ([1]; human, plasma, oral, Plasma concentration, mean (standard deviation), 0.5 h, D14 multiple doses of lenvatinib and 1 dose of midazolam): 23.7 ng/mL
- concentration at 1 h [1, 6]: 16.5 ng/mL
- concentration at 1 h [1, 7]: 23.1 ng/mL
- concentration at 1.5 h ([1]; human, plasma, oral, Plasma concentration, mean (standard deviation), 1.5 h, D14 multiple doses of lenvatinib and 1 dose of midazolam): 17.8 ng/mL
- concentration at 2 h [1, 6]: 11.3 ng/mL
- concentration at 2 h [1, 7]: 13.9 ng/mL
- concentration at 3 h [1, 6]: 7.89 ng/mL
- concentration at 3 h [1, 7]: 9.93 ng/mL
- concentration at 4 h [1, 6]: 5.67 ng/mL
- concentration at 4 h [1, 7]: 7.58 ng/mL
- concentration at 6 h [1, 6]: 4.08 ng/mL
- concentration at 6 h [1, 7]: 5.21 ng/mL
- concentration at 8 h [1, 6]: 2.96 ng/mL
- concentration at 8 h [1, 7]: 4.05 ng/mL
- concentration at 10 h [1, 6]: 2.39 ng/mL
- concentration at 10 h [1, 7]: 3.47 ng/mL
- concentration at 24 h [1, 6]: 0.628 ng/mL
- concentration at 24 h [1, 7]: 1.25 ng/mL
- Vd/F ([1]; human, plasma, oral, Day 1, with single dose of lenvatinib, mean (SD)): 481 L
- Vd/F ([1]; human, plasma, oral, Day 14, with lenvatinib at steady state, mean (SD)): 544 L
- half-life ([1]; human, plasma, oral, t1/2, Day 1, with single dose of lenvatinib, mean (SD)): 6.48 h
- half-life ([1]; human, plasma, oral, t1/2, Day 14, with lenvatinib at steady state, mean (SD)): 6.76 h
- tmax ([1]; human, plasma, oral, tmax, Day 1, with single dose of lenvatinib, median (minimum, maximum)): 0.63 h
- Change in t1/2 when administered with lenvatinib (CYP3A4 [2]; D1 and D14 vs D −3): little change; also recorded: no statistically significant change
- Difference in median tmax (CYP3A4 [2]; D1 vs D −3): 0.00 h
- Difference in median tmax (CYP3A4 [2]; D14 vs D −3): 0.00 h
- Change in CL/F and Vz/F over time (CYP3A4 [2]; D −3, D1, D14): no statistically significant change

Structure (SMILES): COC[C@H](NC(=O)c1cnc(C)s1)C(=O)N[C@@H](COC)C(=O)N[C@@H](Cc1ccccc1)C(=O)[C@@]1(C)CO1 [Oprozomib, oprozomib]
- CYP3A4 inhibition in patients (midazolam) (CYP3A4 [3]): clinically relevant inhibition was not seen
